Source: ChEMBL document CHEMBL1201862, “PubChem BioAssay data set” (2004)
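Interpolation was linear, between the two tested concentrations surrounding the appropriate level; five concentrations were tested over 48 hours in 96-well plates. GI50 = concentration required for 50% inhibition of growth.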 Active and inactive are the calls of the source. No stated cut-off is given here; in the data, active = GI50 up to about 1.1 µM and inactive = higher.

Legend:
Assay in all cases: NCI-60 cell line screen, 48 h
ACHN = tested on: ACHN
SK-MEL-28 = tested on: SK-MEL-28
SN12C = tested on: SN12C
SW-620 = tested on: SW-620
KM12 = tested on: KM12
A498 = tested on: A498
U-251 = tested on: U-251
OVCAR-4 = tested on: OVCAR-4
NCI-H226 = tested on: NCI-H226
HL-60 = tested on: HL-60
OVCAR-5 = tested on: OVCAR-5
MOLT-4 = tested on: MOLT-4
HOP-92 = tested on: HOP-92
SNB-19 = tested on: SNB-19
COLO 205 = tested on: COLO 205
SNB-75 = tested on: SNB-75
BT-549 = tested on: BT-549
NCI/ADR-RES = tested on: NCI/ADR-RES
MDA-MB-231 = tested on: MDA-MB-231
Hs-578T = tested on: Hs-578T

Measured: GI50

COc1cc2cc3c4c(cc(OC)c(OC)c4c2cc1OC)CCN3C(=O)CCCC(=O)O
inactive: ACHN > 100 µM | SK-MEL-28 > 100 µM | SN12C > 100 µM | SW-620 > 100 µM | KM12 > 100 µM | A498 > 100 µM | U-251 > 100 µM | OVCAR-4 34.8 µM | NCI-H226 > 100 µM | HL-60 > 100 µM | OVCAR-5 > 100 µM | MOLT-4 > 100 µM | HOP-92 > 100 µM | SNB-19 > 100 µM | COLO 205 > 100 µM

CCCCC(C(=O)C(=O)Nc1ccc(C)cc1C)C(=O)C(C)C (stereo not drawn)
inactive: ACHN > 100 µM | SK-MEL-28 > 100 µM | SN12C > 100 µM | SW-620 > 100 µM | KM12 > 100 µM | A498 > 100 µM | U-251 > 100 µM | OVCAR-4 > 100 µM | NCI-H226 > 100 µM | HL-60 > 100 µM | OVCAR-5 > 100 µM | MOLT-4 > 100 µM | HOP-92 > 100 µM | SNB-19 > 100 µM | SNB-75 > 100 µM

Cc1cc(=O)oc2cc3c(cc12)Oc1ccccc1O3
inactive: ACHN > 100 µM | SK-MEL-28 > 100 µM | SN12C > 100 µM | SW-620 > 100 µM | KM12 > 100 µM | A498 > 100 µM | U-251 45.1 µM | OVCAR-4 > 100 µM | NCI-H226 > 100 µM | HL-60 > 10 µM | OVCAR-5 > 100 µM | MOLT-4 > 100 µM | HOP-92 > 100 µM | SNB-19 > 100 µM | SNB-75 21.1 µM | COLO 205 > 100 µM

C/C(CN1C(=O)c2ccccc2C1=O)=N\NS(=O)(=O)c1ccccc1
inactive: ACHN > 100 µM | SK-MEL-28 > 100 µM | SN12C > 100 µM | SW-620 > 100 µM | KM12 > 100 µM | A498 > 100 µM | U-251 > 100 µM | OVCAR-4 > 100 µM | NCI-H226 > 100 µM | HL-60 > 100 µM | OVCAR-5 > 100 µM | MOLT-4 > 100 µM | HOP-92 > 100 µM | SNB-19 > 100 µM | SNB-75 > 100 µM | COLO 205 > 100 µM

COc1ccc(NC(=O)C2=CC(=O)c3ccc(O)cc3C2=O)c(OC)c1
inactive: ACHN > 100 µM | SK-MEL-28 > 100 µM | SN12C > 100 µM | SW-620 > 100 µM | KM12 > 100 µM | A498 > 100 µM | U-251 > 100 µM | OVCAR-4 > 100 µM | NCI-H226 > 100 µM | HL-60 > 100 µM | OVCAR-5 > 100 µM | MOLT-4 > 100 µM | HOP-92 > 100 µM | SNB-19 > 100 µM | SNB-75 > 100 µM | COLO 205 > 100 µM

O=C(CC1C(=O)c2ccccc2C1=C1C(=O)c2ccccc2C1=O)c1ccccc1 (stereo not drawn)
inactive: ACHN 80.4 µM | SK-MEL-28 > 100 µM | SN12C > 100 µM | SW-620 > 100 µM | KM12 > 100 µM | A498 > 100 µM | U-251 > 100 µM | OVCAR-4 77.6 µM | NCI-H226 > 100 µM | HL-60 44.6 µM | OVCAR-5 > 100 µM | MOLT-4 77.3 µM | HOP-92 74.3 µM | SNB-19 > 100 µM | SNB-75 > 100 µM | COLO 205 37.2 µM

CSc1nc2c(c(O)c(C)c(=O)n2C2OCC(OC(C)=O)C(OC(C)=O)C2OC(C)=O)c(=O)n1C (stereo not drawn)
inactive: ACHN > 100 µM | SK-MEL-28 > 100 µM | SN12C > 100 µM | SW-620 > 100 µM | KM12 > 100 µM | A498 > 100 µM | U-251 > 100 µM | OVCAR-4 > 100 µM | NCI-H226 > 100 µM | HL-60 > 100 µM | OVCAR-5 > 100 µM | MOLT-4 > 100 µM | HOP-92 > 100 µM | SNB-19 > 100 µM | SNB-75 > 100 µM | COLO 205 > 100 µM

Cc1cc(O)c2c(c1)C(C1OC(CO)C(O)C(O)C1O)c1cc(O)cc(O)c1C2=O (stereo not drawn)
inactive: BT-549 > 100 µM | ACHN > 100 µM | SK-MEL-28 > 100 µM | SN12C > 100 µM | SW-620 > 100 µM | NCI/ADR-RES > 100 µM | A498 > 100 µM | U-251 > 100 µM | OVCAR-4 > 100 µM | NCI-H226 > 100 µM | HL-60 > 100 µM | OVCAR-5 > 100 µM | MOLT-4 > 100 µM | HOP-92 > 100 µM | SNB-19 > 100 µM | MDA-MB-231 > 100 µM | SNB-75 > 100 µM | COLO 205 > 100 µM

CCOC(=O)/C(=C/c1ccccc1)N(CC)CC
inactive: ACHN > 100 µM | SK-MEL-28 > 100 µM | SN12C > 100 µM | SW-620 > 100 µM | KM12 > 100 µM | A498 > 100 µM | U-251 > 100 µM | OVCAR-4 > 100 µM | NCI-H226 > 100 µM | HL-60 > 100 µM | OVCAR-5 > 100 µM | MOLT-4 > 100 µM | HOP-92 > 100 µM | SNB-19 > 100 µM | COLO 205 > 100 µM

O=S(=O)(c1cc(Cl)ccc1Cl)N1CCN(c2cccc(Cl)c2)CC1
inactive: BT-549 > 100 µM | ACHN > 100 µM | SK-MEL-28 > 100 µM | SN12C > 100 µM | SW-620 > 100 µM | KM12 > 100 µM | A498 > 100 µM | U-251 > 100 µM | OVCAR-4 > 100 µM | NCI-H226 > 100 µM | HL-60 > 100 µM | OVCAR-5 > 100 µM | MOLT-4 > 100 µM | HOP-92 > 100 µM | Hs-578T > 100 µM | SNB-19 > 100 µM | MDA-MB-231 > 100 µM | SNB-75 > 100 µM

CCCCCCSCC/C(C)=N\OC
inactive: BT-549 > 100 µM | ACHN > 100 µM | SK-MEL-28 > 100 µM | SN12C > 100 µM | SW-620 > 100 µM | NCI/ADR-RES > 100 µM | KM12 > 100 µM | A498 > 100 µM | U-251 > 100 µM | OVCAR-4 > 100 µM | NCI-H226 > 100 µM | HL-60 45.3 µM | OVCAR-5 > 100 µM | MOLT-4 > 100 µM | HOP-92 > 100 µM | SNB-19 > 100 µM | MDA-MB-231 > 100 µM | SNB-75 > 100 µM | COLO 205 > 100 µM

CN/C(=N\C#N)N(Cc1ccccc1)Cc1ccccc1
inactive: ACHN > 100 µM | SK-MEL-28 > 100 µM | SN12C > 100 µM | SW-620 > 100 µM | KM12 > 100 µM | A498 > 100 µM | U-251 > 100 µM | OVCAR-4 > 100 µM | NCI-H226 > 100 µM | HL-60 > 100 µM | OVCAR-5 > 100 µM | MOLT-4 > 100 µM | HOP-92 > 100 µM | SNB-19 > 100 µM | SNB-75 > 100 µM | COLO 205 > 100 µM

COc1cc(CC2c3cc(OC)c(OC)cc3CCN2C)c(C(=O)O)cc1OC (stereo not drawn)
inactive: ACHN > 100 µM | SK-MEL-28 > 100 µM | SN12C > 100 µM | SW-620 > 100 µM | KM12 > 100 µM | A498 > 100 µM | U-251 > 100 µM | NCI-H226 > 100 µM | HL-60 > 100 µM | OVCAR-5 > 100 µM | MOLT-4 > 100 µM | HOP-92 > 100 µM | SNB-19 > 100 µM | SNB-75 > 100 µM | COLO 205 > 100 µM

CCOc1ccc(NCC2CC/C(=C\c3ccc(Cl)cc3)C2=O)cc1 (stereo not drawn)
inactive: ACHN > 40.6 µM | SK-MEL-28 50.2 µM | SN12C > 42.8 µM | SW-620 17.1 µM | KM12 14.2 µM | A498 > 49.5 µM | U-251 25.8 µM | OVCAR-4 39.7 µM | NCI-H226 > 100 µM | HL-60 1.74 µM | OVCAR-5 > 100 µM | MOLT-4 16.8 µM | HOP-92 20.3 µM | SNB-19 49.1 µM | SNB-75 > 44.5 µM | COLO 205 > 37.9 µM

COC(=O)[C@]12CSC[C@H]1C[C@H](c1cccc3ccccc13)N2
inactive: BT-549 > 100 µM | ACHN 39.4 µM | SK-MEL-28 > 100 µM | SN12C > 100 µM | SW-620 > 100 µM | NCI/ADR-RES > 100 µM | KM12 > 100 µM | A498 > 100 µM | U-251 69.8 µM | NCI-H226 96.2 µM | OVCAR-5 > 100 µM | MOLT-4 18.2 µM | HOP-92 > 100 µM | SNB-19 > 100 µM | MDA-MB-231 > 100 µM | SNB-75 > 100 µM | COLO 205 > 100 µM

C/C=C1\CCC2c3[nH]c4ccccc4c3CCN2C1 (stereo not drawn)
inactive: ACHN > 100 µM | SK-MEL-28 > 100 µM | SN12C > 100 µM | SW-620 > 100 µM | KM12 > 100 µM | A498 > 100 µM | U-251 > 100 µM | OVCAR-4 32.1 µM | NCI-H226 31 µM | HL-60 43.3 µM | MOLT-4 76.4 µM | HOP-92 26.3 µM | SNB-19 > 100 µM | SNB-75 61.7 µM

O=C1CCC2(c3ccc(F)cc3)Nc3ccccc3N12 (stereo not drawn)
inactive: ACHN > 100 µM | SK-MEL-28 > 100 µM | SN12C > 100 µM | SW-620 > 100 µM | KM12 > 100 µM | A498 > 100 µM | U-251 > 100 µM | OVCAR-4 > 100 µM | NCI-H226 > 100 µM | HL-60 > 100 µM | OVCAR-5 > 100 µM | MOLT-4 > 100 µM | HOP-92 > 100 µM | SNB-75 63.7 µM | COLO 205 > 100 µM
